For 14 molecules, Emax, prostate sparing and levator ani hypertrophy results are on record in patent US10196353B2, “Chemical compounds” (GlaxoSmithKline Intellectual Property (No. 2) Limited, priority 2012, dated 2019).

The target of assay [1] is androgen receptor (MBP-hAR-LBD, rat androgen ligand binding domain) (Rattus norvegicus (Rat), UniProt P15207). Put plainly: Androgen receptor fluorescence polarization assay. As to conditions: read-out: % Max. The text has this: • The following abbreviations and sources of materials are used • Fluormone PL Red—a commercially available PR fluoroprobe (Invitrogen, P2964) • Fluormone GS Red—a commercially available GR fluoroprobe (PanVera Corp, Product No P2894) • Fluormone AL Red—a commercially available AR fluoroprobe (Invitrogen, PV4294,) • MBP-hPR-LBD—maltose binding protein Purified human progesterone ligand binding domain (made in house) • GR—purified human glucocorticoid receptor (PanVera Corp, Product No P2812) • MBP-hAR-LBD—maltose binding protein Purified rat androgen ligand binding domain (made in house) • PR Screening Buffer—100 mM potassium phosphate (pH 7.4), 100 μG/ml bovine gamma globulin, 15% ethylene glycol, 10% glycerol with 2 mM CHAPS, 1 mM DTT added fresh and 4% DMSO added fresh (final of 5% DMSO in assay with 1% concentration coming from compound dispense) • AR Screening Buffer—50 mM Tris pH 7.5, 100 mM Ammonium Sulfate, 20% glycerol, 3% xylitol with 5 mM Chaps, 2 mM DTT added fresh and 4% DMSO added fresh (final of 5% DMSO in assay with 1% concentration coming from compound dispense) • GR Screening Buffer—100 mM potassium phosphate (pH 7.4), 200 mM Na2MoO2, 1 mM EDTA, 20% DMSO (PanVera Corp Product No P2814) with GR stabilizing peptide (100 μM) (PanVera Corp Product No P2815) • DTT—dithiothreitol (PanVera Corp Product No P2325) • Discovery Analyst—is an FP reader • DMSO—dimethylsulphoxide Progesterone Receptor Fluorescence Polarization Assay:
The androgen receptor fluorescence polarization assay is used to investigate the interaction of the compounds with the androgen receptor.
Compounds are added to the 384 well black low-volume plates to a final volume of 0.1 μL. DTT and DMSO are added to the chilled assay buffer just before beginning assay. Sufficient Fluormone AL Red and AR-LBD are defrosted on ice and added to the chilled buffer in a glass tube to give a final concentration of 1 nM and 100 nM, (for current batch) respectively. A volume of 10 μL of the assay mix is added to compound plates with a multidrop. […] The plates are counted in a Discovery Analyst with suitable 535 nm excitation and 590 nm emission interference filters (Dichroic 561 nM). […] Test compounds are dissolved and diluted in DMSO. Compounds are assayed in singlicate, a four parameter curve fit of the following form being applied
[formula] where a is the minimum, b is the Hill slope, c is the IC50 and d is the maximum.
Data is presented as the mean pIC50 with the standard error of the mean of n experiments.

For assay [2], the system named is castrated male Sprague-Dawley rats. Put plainly: Castrated male rat model (ORX rat). It is filed as in vivo. As to conditions: for prostate sparing: defined as at least a 2:1 ratio of levator ani ED50 to prostate ED50; for levator ani hypertrophy: favorable = 30% or greater increase in levator ani weight vs vehicle-treated castrates, dosed orally at up to 10 mg/kg/day. An excerpt:
The activity of the compounds of the present invention as modulators of the androgen receptor was investigated using a castrated male rat model (ORX) as described in C. D. Kockakian, Pharmac. Therap. B1(2), 149-177 (1975); C. Tobin and Y. Joubert, Developmental Biology 146, 131-138 (1991); J. Antonio, J. D. Wilson and F. W. George, J Appl. Physiol. 87(6) 2016-2019 (1999)) the disclosures of which herein are included by reference.
Androgens have been identified as playing important roles in the maintenance and growth of many tissues in both animals and humans. Muscles, like the levator ani and bulbocavernosus, and sexual accessory organs, such as the prostate glands and seminal vesicles have high expression levels of the androgen receptor and are known to respond quickly to exogenous androgen addition or androgen deprivation through testicular ablation. Castration produces dramatic atrophy of muscle and sexual accessory organs; whereas the administration of exogenous androgens to the castrated animal results in effective hypertrophy of these muscles and sexual accessory organs. Although the levator ani muscle, also known as the dorsal bulbocavernosus, is not ‘true skeletal muscle’ and definitely sex-linked, it is reasonable to use this muscle to screen muscle anabolic activities of test compounds because of its androgen responsiveness and simplicity of removal.
Male Sprague-Dawley rats weighing 160-180 grams were used in the assay. The rats were singly caged upon receiving and throughout the study. Bilateral orchidectomies were performed in sterilized surgical conditions under isoflurane anesthesia. An anteroposterior incision was made in the scrotum. The testicles were exteriorized and the spermatic artery and vas deferens were ligated with 4.0 silk 0.5 cm proximal to the ligation site. The testicles then were removed by a surgical scissors distal to the ligation sites. The tissue stumps were returned to the scrotum, the scrotum and overlying skin were closed by a surgical stapler. The Sham-ORX rats underwent all procedures except ligation and scissors cutting. The rats were assigned randomly into study groups 7-10 days post surgery based on the body weight.
Dihydrotestosterone (DHT) and the standard SARM, S-22, (J. Pharma. Exper. Thera. Vol 315, p. 230) were used as a positive control (1-10 mg/kg s.c. for DHT and 0.1 to 3 mg/kg p.o. for S-22). Compounds of the current invention were administered subcutaneously or orally for 4-28 days. Alternatively, some compounds of the current invention were administered subcutaneously or orally for 7-49 days. The rats were weighed daily and doses were adjusted accordingly. The general well being of the animal was monitored throughout the course of the study.
At the end of the study, the rats were euthanized in a CO2 chamber. The ventral prostate glands (VP), seminal vesicles (SV), levator ani muscle (LA) and bulbocavernosus (BC) were carefully dissected. The tissues were blotted dry; the weights were recorded, and then saved for histological and molecular analysis. The VP and SV weights serve as androgenic indicators and LA and BC as anabolic indicators. The ratio of anabolic to androgenic activities was used to evaluate the test compounds. Serum luteinizing hormone (LH), follicle stimulating hormone (FSH) and other potential serum markers of anabolic activities were also analyzed.
The compounds shown in Examples 9, 20, 26, 27, 33, 51, 52, and 53 were tested in the castrated male rate model essentially as described above. Test compounds were employed in free or salt form. […] Prostate sparing was defined as at least a 2:1 ratio of levator ani ED50 to prostate ED50. The ED50 is defined as 50% of the maximum response above the vehicle treated castrate level. For shorter term studies (4-7 days), the maximum response is defined as the maximum response from positive control (DHT or standard SARM, S-22) treatment. For the longer term studies (7-49 days), the ED50 is defined as 50% of the eugonadal state. […]

Sequence of androgen receptor (MBP-hAR-LBD, rat androgen ligand binding domain) (P15207 651-882): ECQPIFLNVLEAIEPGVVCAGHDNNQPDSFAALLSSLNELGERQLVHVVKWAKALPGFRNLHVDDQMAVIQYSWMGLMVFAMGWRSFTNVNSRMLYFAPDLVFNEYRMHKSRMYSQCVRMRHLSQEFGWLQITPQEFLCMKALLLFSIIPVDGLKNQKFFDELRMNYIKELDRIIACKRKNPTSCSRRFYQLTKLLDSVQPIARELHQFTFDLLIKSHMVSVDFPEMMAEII

`C[C@H](n1ccc2c(Cl)c(C#N)ccc21)C(C)(C)O` [Example 32, (S)-4-Chloro-1-(3-hydroxy-3-methylbutan-2-yl)-1H-indole-5-carbonitrile]: the Emax in assay [1] worked out at 78%. For `CCC(C(=O)OC)n1c(C)cc2c(C(F)(F)F)c(C#N)ccc21` (stereo not shown) [Example 2, Methyl 2-[5-cyano-2-methyl-4-(trifluoromethyl)-1H-indol-1-yl]butanoate], in assay [1], the Emax worked out at 72%. Still for that read-out and setting: in the case of `Cc1cc2c(C(F)(F)F)c(C#N)ccc2n1C(C)CO` (stereo not shown) [Example 7, 1-(1-Hydroxypropan-2-yl)-2-methyl-4-(trifluoromethyl)-1H-indole-5-carbonitrile] it was 100%.

Regarding `CC(CS(C)(=O)=O)n1ccc2c(C(F)(F)F)c(C#N)ccc21` (stereo not shown) [Example 26, 1-(1-(Methylsulfonyl)propan-2-yl)-4-(trifluoromethyl)-1H-indole-5-carbonitrile], in assay [2], the prostate sparing entry is “spared the prostate” and the levator ani hypertrophy result is reported as “favorable levator ani hypertrophy”.

Turning to `Cc1cc2c(C(F)(F)F)c(C#N)ccc2n1C(C)CS(C)(=O)=O` (stereo not shown) [Example 9, 2-Methyl-1-(1-(methylsulfonyl)propan-2-yl)-4-(trifluoromethyl)-1H-indole-5-carbonitrile], in assay [2], the prostate sparing entry is listed as “spared the prostate” and the levator ani hypertrophy entry was “favorable levator ani hypertrophy”. In the same order, the values of `C[C@@H](n1ccc2c(C(F)(F)F)c(C#N)ccc21)[C@](C)(O)C(F)(F)F` [Example 53, 1-((2R,3S)-4,4,4-Trifluoro-3-hydroxy-3-methylbutan-2-yl)-4-(trifluoromethyl)-1H-indole-5-carbonitrile] are “spared the prostate” and “favorable levator ani hypertrophy”. Turning to `C[C@H](CS(C)(=O)=O)n1ccc2c(C(F)(F)F)c(C#N)ccc21` [Example 27, (R)-1-(1-(Methylsulfonyl)propan-2-yl)-4-(trifluoromethyl)-1H-indole-5-carbonitrile], in assay [1], the Emax came to 91%. For the same molecule, in assay [2], the prostate sparing entry is recorded as “spared the prostate” and the levator ani hypertrophy result is “favorable levator ani hypertrophy”. For `C[C@H](n1ccc2c(C(F)(F)F)c(C#N)ccc21)C(C)(C)O` [Example 21, (S)-1-(3-Hydroxy-3-methylbutan-2-yl)-4-(trifluoromethyl)-1H-indole-5-carbonitrile], the Emax in assay [1] is 100%. For `C[C@@H](n1ccc2c(Cl)c(C#N)ccc21)[C@](C)(O)C(F)(F)F` [Example 52, 4-Chloro-1-((2R,3S)-4,4,4-trifluoro-3-hydroxy-3-methylbutan-2-yl)-1H-indole-5-carbonitrile], the Emax in assay [1] came to 97%. Further, in assay [2], the prostate sparing entry is on record as “spared the prostate” and the levator ani hypertrophy entry is recorded as “favorable levator ani hypertrophy”. For the molecule `CC(C)(O)C(C)(C)n1ccc2c(C#N)c(C#N)ccc21` [Example 43, 1-(3-Hydroxy-2,3-dimethylbutan-2-yl)-1H-indole-4,5-dicarbonitrile], the Emax in assay [1] was 105%.

Regarding `CC[C@H](c1cncc(C#N)c1)n1ccc2c(C#N)c(C#N)ccc21` [Example 51, (R)-1-(1-(5-Cyanopyridin-3-yl)propyl)-1H-indole-4,5-dicarbonitrile], in assay [2], the prostate sparing entry is reported as “spared the prostate” and the levator ani hypertrophy result was “favorable levator ani hypertrophy”. With `C[C@@H](n1ccc2c(C(F)(F)F)c(C#N)ccc21)C(C)(C)O` [Example 22, (R)-1-(3-Hydroxy-3-methylbutan-2-yl)-4-(trifluoromethyl)-1H-indole-5-carbonitrile], the Emax in assay [1] is 100%.

Take `CCCc1cc2c(C(F)(F)F)c(C#N)ccc2n1CC(C)(C)O` [Example 12, 1-(2-Hydroxy-2-methylpropyl)-2-propyl-4-(trifluoromethyl)-1H-indole-5-carbonitrile]: the Emax in assay [1] amounted to 90%.

With `CSCC(C)n1c(C(F)F)cc2c(C#N)c(C#N)ccc21` (stereo not shown) [Example 17, 2-(Difluoromethyl)-1-(1-(methylthio)propan-2-yl)-1H-indole-4,5-dicarbonitrile], the Emax in assay [1] was found to be 99%.
